# Experimental data as given in patent US8133882B2, “Quinolone derivative or pharmaceutically acceptable salt thereof” (Astellas Pharma Inc, priority 2006, dated 2012).
# Assays:
# [1] = system: human platelet aggregation (ADP-induced, platelet rich plasma); assay: Human platelet aggregation inhibition activity measuring test (ADP-induced, PRP); format: cell-based; conditions: 10 μM final concentration of compound; human PRP 3×10^8 platelets/ml; ADP (50 μM, 10 μl) induced; area under platelet aggregation curve
# Experimental: Test Method (1) Human Platelet Aggregation Inhibition Activity Measuring Test
# A blood sample was collected from a healthy volunteers (adult) using a syringe containing 1/10th volume of 3.8% sodium citrate solution and centrifuged at 160×g for 10 minutes, thereby separating platelet rich plasma (PRP) of the supernatant. Remaining blood after the collection of PRP was centrifuged at 1,800×g for 10 minutes to separate platelet poor plasma (PPP). The number of platelets in the PRP was measured by an automatic blood cell counter (MEK-6258, Nihon Kohden Corp.), and then the number of platelets was adjusted to 3×10^8/ml by adding PPP to PRP and used in the following test. The ADP as an inducer of platelet aggregation was purchased from MC Medical. Platelet aggregation was measured using an aggregometer (MCM Hematracer 212; MC Medical). That is, 80 μl of PRP of 3×10^8 platelets/ml and 10 μl of a test compound solution or a solvent (10% DMSO or 10% DMSO-9% hydroxypropyl-β-cyclodextrin-4.5% d-mannitol) were incubated at 37° C. for 1 minute, and then 10 μl of ADP (50 μM) was added thereto to induce platelet aggregation, and changes in transmitted light were recorded for 5 minutes. The inhibition ratio was calculated using the area under platelet aggregation curve as an index.
# In this connection, REx represents reference example number, and Ex Example compound number. In addition, Reference Examples 1 and 2 are the Example compounds described in the aforementioned Patent Reference 7, and were produced in accordance with the method described in said patent reference.
# [2] = target: T1, Human P2Y12 (Homo sapiens, UniProt Q9H244); assay: Substitution test for the binding of human P2Y12 with 2-methylthio-ADP (2-MeS-ADP); conditions: 30 nM final concentration of compound; P2Y12 expression C6-15 cell membrane fraction; 0.75 nM [3H]- or [33P]-2-MeS-ADP
# T1 construct: expressed in transfected cells; membrane fraction used
# T1 sequence (Q9H244 whole entry): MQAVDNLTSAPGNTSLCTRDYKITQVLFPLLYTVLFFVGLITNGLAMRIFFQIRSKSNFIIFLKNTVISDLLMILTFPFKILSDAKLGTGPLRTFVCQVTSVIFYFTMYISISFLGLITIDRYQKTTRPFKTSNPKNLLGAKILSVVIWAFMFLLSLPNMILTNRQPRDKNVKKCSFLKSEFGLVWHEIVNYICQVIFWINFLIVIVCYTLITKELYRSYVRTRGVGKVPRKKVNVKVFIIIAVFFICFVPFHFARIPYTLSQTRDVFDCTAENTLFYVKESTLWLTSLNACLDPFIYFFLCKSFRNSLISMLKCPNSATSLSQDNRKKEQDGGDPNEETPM
# Experimental: Test Method (2) Substitution Test for the Binding of Human P2Y12 with 2-methylthio-ADP (2-MeS-ADP)
# A C6-15 cell was inoculated into a 10 cm petri dish to a density of to 1×10^6 cells using DMEM medium and cultured for 1 day, and then 8 μg of a plasmid pEF-BOS-dfhr-human P2Y12 and 0.8 μg of pEF-BOS-neo (Nucleic Acid Res., 18, 5322, 1990) were gene-transferred using a transfection reagent (LipofectAMINE 2000; mfd. by GIBCO BRL).
# 24 hours after the aforementioned gene transfer operation, the gene-transferred cells were recovered, suspended in DMEM medium supplemented with 0.6 mg/ml of G 418 (mfd. by GIBCO BRL) and then serially diluted and inoculated again in a 10 cm petri dish. The colonies appeared after 2 weeks were individually obtained and used in the following test as P2Y12 protein expression C6-15 cells (WO 02/36631, Mol. Pharmacol., 60, 432, 2001).
# After culturing the P2Y12 protein expression C6-15 cells, the cells were recovered. […]
# A 100 μl portion of the P2Y12 protein expression C6-15 cell membrane fraction (100 μg/ml) obtained in the above was mixed with 1.5 μl of a test compound solution and 50 μl of 0.75 nM [^3H]-2-MeS-ADP (80 Ci/mmol, mfd. by Amersham Pharmacia Biotech) or 0.75 nM [^33P]-2-MeS-ADP (2100 Ci/mmol, mfd. by Perkin Elmer), incubated at room temperature for 1 hour in 50 mM Tris-HCl (pH 7.4) containing 100 mM NaCl and 50 mM MgCl2, and then recovered on a glass filter using a cell harvester. A microscintillator was added to the glass filter, and the radioactivity was measured using a liquid scintillation counter. Those to which the solvent alone was added and 1.5 μl of 250 μM ADP was added in the aforementioned test at the same time were regarded as total binding and nonspecific binding, and their radioactivity was measured. By regarding the total binding and nonspecific binding as inhibition ratio 0% and 100% respectively, inhibition ratio (%) of each compound to be tested was calculated.
# [3] = system: rat platelet aggregation (ADP-induced, PRP); assay: Rat platelet aggregation inhibition test (oral administration, ex vivo ADP-induced aggregation); format: in vivo; conditions: dose 30 mg/kg oral, male SD rat, blood collected 2 hours after administration
# Experimental: Test Method (3) Rat Platelet Aggregation Inhibition Test and Measurement of Test Compound Concentration in Plasma
# By adding sodium hydroxide aqueous solution to the compound of the present invention, 0.5% methyl cellulose aqueous solution or suspension was prepared. The thus prepared liquid was orally administered using a sonde to a male SD rat (5 to 7 weeks of age) of after 12 hours or more of fasting. After 2 hours of the compound administration, blood was collected using a syringe containing 1/10th volume of 3.8% sodium citrate solution. In the same manner as in Test method (1), PPP and PRP of 3×10^8 platelets/ml were prepared. A 90 μl portion of the PRP of 3×10^8 platelets/ml was incubated at 37° C. for 1 minute, and then 10 μl of ADP (50 μM) was added thereto to induce platelet aggregation, and changes in transmitted light were recorded for 5 minutes. The inhibition ratio was calculated using the area under platelet aggregation curve as an index.
SMILES,inhibition at 10 µM [1],inhibition at 0.03 µM [2],inhibition at 30 mg/kg [3]
"O=C(O)CCC(=O)Nc1cn(C2CCCC2)c2cc(NC3CCCCC3)c(F)cc2c1=O [Ex 2, 4-{[7-(cyclohexylamino)-1-cyclopentyl-6-fluoro-4-oxo-1,4-dihydroquinolin-3-yl]amino}-4-oxobutanoic acid]",93%,89%,–
"O=C(O)CNC(=O)c1cn(C2CCCC2)c2cc(NC3CCCCC3)c(F)cc2c1=O [REx 2, ({[7-(cyclohexylamino)-1-cyclopentyl-6-fluoro-4-oxo-1,4-dihydroquinolin-3-yl]carbonyl}amino)acetic Acid]",79%,86%,-7%
"O=C(O)CCCNC(=O)c1cn(C2CCCC2)c2cc(NC3CCCCC3)c(F)cc2c1=O [REx 1, 4-({[7-(cyclohexylamino)-1-cyclopentyl-6-fluoro-4-oxo-1,4-dihydroquinolin-3-yl]carbonyl}amino)butanoic Acid]",64%,76%,11%
